Source: patent publication EP0908457B1, “3-(1,2-benzisothiazol- and isoxazol-5-Y1)-2,4(1H,3H)-pyrimidinedione or thione and 3-(1,2-benzisothiazol- and isoxazol-5-y1)-4(3H)-pyrimidinone or thione herbicidal agents” (BASF AKTIENGESELLSCHAFT, priority 1997, dated 1999)

Assays:
[1] = tested on: Echinochloa oryzoides (Ard.) Fritsch.; experiment: Preemergence weed control under flooded paddy conditions, ECHORC (Watergrass (Calif.)); assay type: in vivo; details: flooded paddy; as to herbicidal effect rating, ECHORC: meaning of each grade not given here
Cyperus iria = experiment: Preemergence weed control under flooded paddy conditions, CYPIR (Rice Flatsedge); assay type: in vivo; details: flooded paddy; as to herbicidal effect rating, CYPIR: meaning of each grade not given here
[2] = tested on: Cyperus serotinus, Rottb.; experiment: Preemergence weed control under flooded paddy conditions, CYPSE (Flatsedge); assay type: in vivo; as to herbicidal effect rating, CYPSE: meaning of each grade not given here
[3] = tested on: Monochoria vaginalis, Presl.; experiment: Preemergence weed control under flooded paddy conditions, MOOVA (Monochoria); assay type: in vivo; details: flooded paddy; as to herbicidal effect rating, MOOVA: meaning of each grade not given here
Sagittaria pygmaea, L. = experiment: Preemergence weed control under flooded paddy conditions, SAGPY (Arrowhead (Pygmaea)); assay type: in vivo; details: flooded paddy; as to herbicidal effect rating, SAGPY: meaning of each grade not given here
[4] = tested on: Oryza sativa, (L.) Tebonnet; experiment: Rice tolerance to post-transplant applications under flooded paddy conditions (Example 187), ORYSAT (Rice, Tebonnet); as to herbicidal effect rating ORYSAT: meaning of each grade not given here
[5] = Rate 0.0320 kg/ha, preemergence weeds, rated three to four weeks after treatment
[6] = Rate 0.0620 kg/ha, preemergence weeds, rated three to four weeks after treatment
[7] = Rate 0.1250 kg/ha, preemergence weeds, rated three to four weeks after treatment
[8] = Rate 0.2500 kg/ha, preemergence weeds, rated three to four weeks after treatment
[9] = Rate 0.2500 kg/ha, rated three to four weeks after treatment
[10] = Rate 0.2500 kg/ha, preemergence, rated three to four weeks after treatment
[11] = Rate 0.0620 kg/ha, preemergence, rated 3-4 weeks after treatment
[12] = Rate 0.1250 kg/ha, preemergence, rated 3-4 weeks after treatment
[13] = Rate 0.2500 kg/ha, preemergence, rated 3-4 weeks after treatment
[14] = Rate 0.5000 kg/ha, preemergence, rated 3-4 weeks after treatment
[15] = Rate 0.0620 kg/ha, rated 3-4 weeks after treatment
[16] = Rate 0.1250 kg/ha, rated 3-4 weeks after treatment
[17] = Rate 0.2500 kg/ha, rated 3-4 weeks after treatment
[18] = 0.0320 kg/ha, preemergence, rated three to four weeks after treatment
[19] = 0.0620 kg/ha, preemergence, rated three to four weeks after treatment
[20] = 0.1250 kg/ha, preemergence, rated three to four weeks after treatment
[21] = 0.2500 kg/ha, preemergence, rated three to four weeks after treatment
[22] = Rate 0.0320 kg/ha, preemergence, rated 3-4 weeks after treatment
[23] = 0.0315 kg/ha, preemergence weeds, rated three to four weeks after treatment
[24] = 0.0630 kg/ha, preemergence weeds, rated three to four weeks after treatment

COc1ccc(C)cc1-c1noc2cc(F)c(-n3c(=O)cc(C(F)(F)F)n(C)c3=O)cc12 [Example 345, 2,4(1H,3H)-Pyrimidinedione, 3-[6-fluoro-3-(6-methoxy-m-tolyl)-1,2-benzisoxazol-5-yl]-1-methyl-6-(trifluoromethyl)-]
herbicidal effect rating, ECHORC [1, 5]: 9.0
herbicidal effect rating, ECHORC [1, 6]: 9.0
herbicidal effect rating, ECHORC [1, 7]: 9.0
herbicidal effect rating, ECHORC [1, 8]: 9.0
herbicidal effect rating, CYPIR (Cyperus iria; [5]): 9.0
herbicidal effect rating, CYPIR (Cyperus iria; [6]): 9.0
herbicidal effect rating, CYPIR (Cyperus iria; [7]): 9.0
herbicidal effect rating, CYPIR (Cyperus iria; [8]): 9.0
herbicidal effect rating, CYPSE [2, 5]: 5.0
herbicidal effect rating, CYPSE [2, 6]: 9.0
herbicidal effect rating, CYPSE [2, 7]: 4.5
herbicidal effect rating, CYPSE [2, 8]: 9.0
herbicidal effect rating, MOOVA [3, 5]: 9.0
herbicidal effect rating, MOOVA [3, 6]: 9.0
herbicidal effect rating, MOOVA [3, 7]: 9.0
herbicidal effect rating, MOOVA [3, 8]: 9.0
herbicidal effect rating, SAGPY (Sagittaria pygmaea, L.; [5]): 4.5
herbicidal effect rating, SAGPY (Sagittaria pygmaea, L.; [6]): 9.0
herbicidal effect rating, SAGPY (Sagittaria pygmaea, L.; [7]): 9.0
herbicidal effect rating, SAGPY (Sagittaria pygmaea, L.; [8]): 9.0
herbicidal effect rating ORYSAT ([4]; Rate 0.0320 kg/ha, rated three to four weeks after treatment): 5.5
herbicidal effect rating ORYSAT ([4]; Rate 0.0620 kg/ha, rated three to four weeks after treatment): 5.5
herbicidal effect rating ORYSAT ([4]; Rate 0.1250 kg/ha, rated three to four weeks after treatment): 5.5
herbicidal effect rating ORYSAT [4, 9]: 6.0

Cn1c(C(F)(F)F)cc(=O)n(-c2ccc3snc(CCBr)c3c2)c1=O [Example 260, 2,4(1H,3H)-Pyrimidinedione, 3-[3-(2-bromoethyl)-1,2-benzisothiazol-5-yl]-1-methyl-6-(trifluoromethyl)-]
ECHORC herbicidal effect rating [1, 10]: 0.0
CYPIR herbicidal effect rating (Cyperus iria; [10]): 0.0
CYPSE herbicidal effect rating [2, 10]: 0.0
MOOVA herbicidal effect rating [3, 10]: 0.0
SAGPY herbicidal effect rating (Sagittaria pygmaea, L.; [10]): 0.0
ORYSAT herbicidal effect rating [4, 9]: 0.0

CC(Oc1ccccc1-c1nsc2ccc(-n3c(=O)cc(C(F)(F)F)n(C)c3=O)cc12)C(=O)N(C)C (stereo not drawn) [Example 551, Propionamide, 2-{o-{5-[3,6-dihydro-3-methyl-2,6-dioxo-4-(trifluoromethyl)-1(2H)-pyrimidinyl]-1,2-benzisothiazol-3-yl}phenoxy}-N,N-dimethyl-]
herbicidal effect rating, ECHORC [1, 11]: 4.0
herbicidal effect rating, ECHORC [1, 12]: 7.0
herbicidal effect rating, ECHORC [1, 13]: 7.0
herbicidal effect rating, ECHORC [1, 14]: 9.0
herbicidal effect rating, CYPIR (Cyperus iria; [11]): 0.0
herbicidal effect rating, CYPIR (Cyperus iria; [12]): 0.0
herbicidal effect rating, CYPIR (Cyperus iria; [13]): 2.0
herbicidal effect rating, CYPIR (Cyperus iria; [14]): 9.0
herbicidal effect rating, CYPSE [2, 11]: 0.0
herbicidal effect rating, CYPSE [2, 12]: 0.0
herbicidal effect rating, CYPSE [2, 13]: 0.0
herbicidal effect rating, CYPSE [2, 14]: 0.0
herbicidal effect rating, MOOVA [3, 11]: 0.0
herbicidal effect rating, MOOVA [3, 12]: 9.0
herbicidal effect rating, MOOVA [3, 13]: 9.0
herbicidal effect rating, MOOVA [3, 14]: 9.0
herbicidal effect rating, SAGPY (Sagittaria pygmaea, L.; [11]): 0.0
herbicidal effect rating, SAGPY (Sagittaria pygmaea, L.; [12]): 0.0
herbicidal effect rating, SAGPY (Sagittaria pygmaea, L.; [13]): 0.0
herbicidal effect rating, SAGPY (Sagittaria pygmaea, L.; [14]): 2.0
herbicidal effect rating ORYSAT [4, 15]: 0.0
herbicidal effect rating ORYSAT [4, 16]: 3.0
herbicidal effect rating ORYSAT [4, 17]: 3.0
herbicidal effect rating ORYSAT ([4]; Rate 0.5000 kg/ha, rated 3-4 weeks after treatment): 4.0

COC(=O)COc1cc(Cl)c(C)cc1-c1nsc2ccc(-n3c(=O)cc(C(F)(F)F)n(C)c3=O)cc12 [Example 493, Acetic acid, {{5-chloro-2-{5-[3,6-dihydro-3-methyl-2,6-dioxo-4-(trifluoromethyl)-1(2H)-pyrimidinyl]-1,2-benzisothiazol-3-yl}-p-tolyl}oxy}-, methyl ester]
ECHORC herbicidal rating [1, 18]: 4.0
ECHORC herbicidal rating [1, 19]: 5.0
ECHORC herbicidal rating [1, 20]: 9.0
ECHORC herbicidal rating [1, 21]: 9.0
CYPIR herbicidal rating (Cyperus iria; [18]): 4.0
CYPIR herbicidal rating (Cyperus iria; [19]): 6.0
CYPIR herbicidal rating (Cyperus iria; [20]): 7.0
CYPIR herbicidal rating (Cyperus iria; [21]): 9.0
CYPSE herbicidal rating [2, 20]: 9.0
CYPSE herbicidal rating [2, 21]: 9.0
MOOVA herbicidal rating [3, 18]: 5.0
MOOVA herbicidal rating [3, 19]: 7.0
MOOVA herbicidal rating [3, 20]: 7.0
MOOVA herbicidal rating [3, 21]: 9.0
SAGPY herbicidal rating (Sagittaria pygmaea, L.; [18]): 0.0
SAGPY herbicidal rating (Sagittaria pygmaea, L.; [19]): 0.0
SAGPY herbicidal rating (Sagittaria pygmaea, L.; [20]): 0.0
SAGPY herbicidal rating (Sagittaria pygmaea, L.; [21]): 3.0
ORYSAT herbicidal rating (rice tolerance) ([4]; 0.0320 kg/ha, rated three to four weeks after treatment): 2.0
ORYSAT herbicidal rating (rice tolerance) ([4]; 0.0620 kg/ha, rated three to four weeks after treatment): 2.0
ORYSAT herbicidal rating (rice tolerance) ([4]; 0.1250 kg/ha, rated three to four weeks after treatment): 3.0
ORYSAT herbicidal rating (rice tolerance) ([4]; 0.2500 kg/ha, rated three to four weeks after treatment): 3.0

C=CCOC(=O)/C=C/c1nsc2ccc(-n3c(=O)cc(C(F)(F)F)n(C)c3=O)cc12 [Example 566, 1,2-Benzisothiazole-3-acrylic acid, 5-[3,6-dihydro-3-methyl-2,6-dioxo-4-(trifluoromethyl)-1(2H)-pyrimidinyl]-, allyl ester, (E)-]
herbicidal effect rating, ECHORC [1, 22]: 3.0
herbicidal effect rating, ECHORC [1, 11]: 3.0
herbicidal effect rating, ECHORC [1, 12]: 3.0
herbicidal effect rating, ECHORC [1, 13]: 6.0
herbicidal effect rating, CYPIR (Cyperus iria; [22]): 0.0
herbicidal effect rating, CYPIR (Cyperus iria; [11]): 0.0
herbicidal effect rating, CYPIR (Cyperus iria; [12]): 0.0
herbicidal effect rating, CYPIR (Cyperus iria; [13]): 9.0
herbicidal effect rating, CYPSE [2, 22]: 0.0
herbicidal effect rating, CYPSE [2, 11]: 0.0
herbicidal effect rating, CYPSE [2, 12]: 0.0
herbicidal effect rating, CYPSE [2, 13]: 3.0
herbicidal effect rating, MOOVA [3, 22]: 9.0
herbicidal effect rating, MOOVA [3, 11]: 9.0
herbicidal effect rating, MOOVA [3, 12]: 9.0
herbicidal effect rating, MOOVA [3, 13]: 9.0
herbicidal effect rating, SAGPY (Sagittaria pygmaea, L.; [22]): 0.0
herbicidal effect rating, SAGPY (Sagittaria pygmaea, L.; [11]): 0.0
herbicidal effect rating, SAGPY (Sagittaria pygmaea, L.; [12]): 0.0
herbicidal effect rating, SAGPY (Sagittaria pygmaea, L.; [13]): 9.0
herbicidal effect rating ORYSAT [4, 15]: 3.0
herbicidal effect rating ORYSAT [4, 16]: 5.0
herbicidal effect rating ORYSAT [4, 17]: 6.0

C=CC(C)OC(=O)COc1ccc(C)cc1-c1nsc2ccc(-n3c(=O)cc(C(F)(F)F)n(C)c3=O)cc12 (stereo not drawn) [Example 186, 1-Methylallyl {{2-{5-[3,6-dihydro-3-methyl-2,6-dioxo-4-(trifluoromethyl)-1(2H)-pyrimidinyl]-1,2-benzisothiazol-3-yl}-p-tolyl}oxy}acetate]
herbicidal effect rating, ECHORC [1, 23]: 9.0
herbicidal effect rating, ECHORC [1, 24]: 9.0
herbicidal effect rating, CYPIR (Cyperus iria; [23]): 9.0
herbicidal effect rating, CYPIR (Cyperus iria; [24]): 9.0
herbicidal effect rating, CYPSE [2, 23]: 9.0
herbicidal effect rating, CYPSE [2, 24]: 9.0
herbicidal effect rating, MOOVA [3, 23]: 9.0
herbicidal effect rating, MOOVA [3, 24]: 9.0
herbicidal effect rating, SAGPY (Sagittaria pygmaea, L.; [23]): 9.0
herbicidal effect rating, SAGPY (Sagittaria pygmaea, L.; [24]): 9.0
herbicidal effect rating, ORYSAT (rice tolerance) ([4]; 0.0315 kg/ha, rated three to four weeks after treatment): 9.0
herbicidal effect rating, ORYSAT (rice tolerance) ([4]; 0.0630 kg/ha, rated three to four weeks after treatment): 9.0
